In patent US10350334B2, “Catheter locking solution having antimicrobial and anticoagulation properties” (Becton, Dickinson and Company, priority 2009, dated 2019):

Tested on: Staphylococcus epidermidis
Experiment: Planktonic cell tests
Assay type: cell-based
Details: 12 mg/mL, 30 and 60 minutes
Method: In the planktonic cell tests, bupivacine was tested against non-adhering coagulase negative S. epidermidis, which is the bacterial species most prominent in the pathogenesis of CR-BSI. The planktonic cell experiments were performed by the following procedures. First, bacterial suspensions were prepared. Particularly, using BD BBL™ Qualiswab™, S. epidermidis was plated on a Tryptic Soy Broth (TSB) Petri Dish and grown overnight at 37° C. Using a sterile loop, a colony of S. epidermidis was picked up from the TSB Petri Dish and placed into a sterile flask containing 25 mL of sterile TSB media. The flask was then placed in a 37° C. shaking incubator and was shaken at 150 RPM overnight. The next day, 15 mL of the prepared bacterial suspension was placed into an autoclaved centrifuge tube and centrifuged at 10,000 RPM for 10 minutes using a Sorval Centrifuge. The bacteria from the bacterial suspension were rinsed in 0.9% saline by discarding the liquid media (after centrifugation step) and by resuspending the microbial pellet in 20 mL of sterile 0.9% saline. The bacteria were centrifuged and rinsed twice more, for a total of three saline rinses. […]
Bulk concentrations of the bupivacaine and/or vancomyacin (as noted in FIG. 1) were prepared in separate beakers and were filter sterilized. […] Samples were also assessed at time 0, in which there was no exposure to antimicrobials. […]

## CCCCN1CCCCC1C(=O)Nc1c(C)cccc1C.Cl (stereo not shown) [Bupivacaine, Bupivacaine HCl]
  antimicrobial effect against planktonic Staphylococcus epidermidis: significant antimicrobial effect
